Laboratory results as given in PubChem BioAssay (NCI).
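Dose response: 5 concentrations. Exposure: 48 h. Format: 96-well plates. Endpoint: linear interpolation; highest concentration if not reached. At the GI50, growth is halved. The concentration for full growth arrest is given as TGI.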 Non-standard residues stand in square brackets, D forms with d. Residues, ends and D or L forms follow the SMILES beside them. *: point of attachment. ONb = O=[N+]([O-])c1ccc(CO*)cc1; AllylGly = C=CC[CH](N)C(=O)O; Boc = CC(C)(C)OC(=O)*

Assays:
Assay in all cases: NCI tumour cell line growth inhibition, 48 h
HCC-2998 colon = system: HCC-2998 colon
NCI-H460 lung = system: NCI-H460 lung
NCI-H23 lung = system: NCI-H23 lung
OVCAR-3 ovarian = system: OVCAR-3 ovarian
OVCAR-5 ovarian = system: OVCAR-5 ovarian
NCI-H522 lung = system: NCI-H522 lung
CCRF-CEM leukemia = system: CCRF-CEM leukemia
MOLT-4 leukemia = system: MOLT-4 leukemia
NCI-H226 lung = system: NCI-H226 lung
SNB-19 CNS = system: SNB-19 CNS

SMILES	GI50 (HCC-2998 colon)	TGI (HCC-2998 colon)	GI50 (NCI-H460 lung)	TGI (NCI-H460 lung)	GI50 (NCI-H23 lung)	TGI (NCI-H23 lung)	GI50 (OVCAR-3 ovarian)	TGI (OVCAR-3 ovarian)	GI50 (OVCAR-5 ovarian)	GI50 (NCI-H522 lung)	GI50 (CCRF-CEM leukemia)	GI50 (MOLT-4 leukemia)	TGI (MOLT-4 leukemia)	GI50 (NCI-H226 lung)	TGI (NCI-H226 lung)	TGI (OVCAR-5 ovarian)	TGI (NCI-H522 lung)	TGI (CCRF-CEM leukemia)	GI50 (SNB-19 CNS)	TGI (SNB-19 CNS)
C=CCC(NC(=O)OC(C)(C)C)C(=O)NC(CCC(=O)OCc1ccc([N+](=O)[O-])cc1)C(N)=O (stereo unspecified) (Boc-[AllylGly]-Glu(ONb)-NH2; configuration not given here)	19.2 µg/mL	43.7 µg/mL	24.7 µg/mL	49.8 µg/mL	29.6 µg/mL	91.8 µg/mL	26.3 µg/mL	90.1 µg/mL	64.1 µg/mL	28.1 µg/mL	31.8 µg/mL	–	–	–	–	–	–	–	–	–
O=C(Oc1ccc(Cl)cc1Cl)c1ccccc1Nc1ccnc(C(F)(F)F)c1	3.25 µM	5.49 µM	4.26 µM	33.8 µM	3.51 µM	13.6 µM	11 µM	24.9 µM	7.9 µM	4.61 µM	3.54 µM	> 100 µM	> 100 µM	3.46 µM	18.6 µM	22 µM	36 µM	> 100 µM	–	–
COc1nc(N(C)O)nc(N(C)O)n1	2.25 µM	> 100 µM	0.454 µM	8.62 µM	2.14 µM	> 100 µM	0.794 µM	> 100 µM	–	2.53 µM	0.624 µM	0.885 µM	> 100 µM	2.48 µM	55.4 µM	–	> 100 µM	> 100 µM	2.38 µM	> 100 µM
COc1cc2c3c(n(C)c(=O)c2cc1OC)-c1cc2c(cc1/C3=C\CCCCCN)OCO2	1.28 µM	39.5 µM	0.13 µM	21.7 µM	1.62 µM	13.3 µM	2.79 µM	22.1 µM	8.66 µM	1.23 µM	0.0121 µM	–	–	0.601 µM	13.7 µM	> 52.9 µM	> 100 µM	0.0641 µM	2.49 µM	76.5 µM
Cc1ccc(-[n+]2c3cc(N)c(C)cc3nc3cc(C)c(Nc4ccccc4)cc32)cc1	0.566 µM	1.82 µM	–	–	–	–	–	–	0.357 µM	0.249 µM	0.223 µM	0.244 µM	1.69 µM	–	–	1.48 µM	0.788 µM	> 100 µM	–	–
N#CCC1COc2ccccc2O1 (stereo unspecified)	–	> 10 µM	–	–	–	> 10 µM	–	–	–	–	–	–	> 10 µM	–	–	> 10 µM	> 10 µM	> 10 µM	–	> 10 µM
O=C(CNc1nncs1)NO	–	> 100 µM	–	> 100 µM	–	> 100 µM	–	> 100 µM	–	–	–	–	> 100 µM	–	–	> 100 µM	> 100 µM	–	–	> 100 µM
Nc1nc(SCc2ccccn2)c2ncn(C3CCCC3)c2n1	–	> 100 µM	–	> 100 µM	–	> 100 µM	–	> 100 µM	–	–	–	–	–	–	> 100 µM	> 100 µM	> 100 µM	> 100 µM	–	> 100 µM
N#Cc1c(Sc2ccccc2N)cccc1Sc1ccccc1N	67.7 µM	–	40.3 µM	–	59 µM	–	–	–	–	51.7 µM	20.9 µM	22.2 µM	–	96.8 µM	–	–	–	–	97.5 µM	–
O=C(Nc1ccc(N2CCNCC2)cc1)c1[nH]ncc1Nc1ncnc2sc3c(c12)CCC3	0.62 µM	2.19 µM	0.0845 µM	0.978 µM	0.268 µM	1.85 µM	0.256 µM	1.67 µM	0.33 µM	–	0.222 µM	0.0835 µM	1.07 µM	0.548 µM	2.56 µM	1.92 µM	–	1.13 µM	0.274 µM	1.69 µM
Cn1c2c(c3ccccc31)CCN(CCCCN1CCc3c(n(C)c4ccccc34)C1=O)C2	–	–	–	> 100 µM	–	> 100 µM	–	> 100 µM	–	–	–	–	> 100 µM	–	–	> 100 µM	> 100 µM	> 100 µM	–	> 100 µM
COc1cc(OC)c([C@@H]2OC(=O)C3C2C(=O)O[C@H]3c2cc(OC)c(OC)cc2OC)cc1OC (stereo partly specified)	–	> 100 µM	–	> 100 µM	–	> 100 µM	–	> 100 µM	–	–	–	–	> 100 µM	–	–	–	–	> 100 µM	–	> 100 µM
Cc1cc(C)nc(NS(=O)(=O)c2ccc(Nc3c4ccccc4nc4c(C(=O)Nc5ccc(S(=O)(=O)N=C(N)N)cc5)ccc(Cl)c34)cc2)n1	–	38.4 µM	–	> 100 µM	–	43.7 µM	–	37.5 µM	–	–	–	–	64.8 µM	–	58.1 µM	> 100 µM	29.4 µM	–	–	46.7 µM
Nc1ccn(CCOC(=O)c2ccccc2)c(=O)n1	–	–	–	> 100 µM	–	–	–	> 100 µM	–	–	–	–	–	–	> 100 µM	> 100 µM	> 100 µM	> 100 µM	–	–
C=C1C(=O)O[C@H]2[C@H]1CC/C(Cn1cc(CNC(=O)Cc3cn(C(=O)c4ccc(Cl)cc4)c4ccc(OC)cc34)nn1)=C\CC[C@@]1(C)O[C@@H]21	–	–	3.86 µM	13.2 µM	2.58 µM	6.7 µM	1.61 µM	3.19 µM	1.66 µM	–	0.384 µM	2 µM	6.16 µM	1.76 µM	3.41 µM	3.34 µM	–	2.4 µM	2.14 µM	4.77 µM
COc1ccc(N=C2CSc3nnc(-c4cc(F)c(Cl)cc4Cl)n3N2)cc1	–	–	1.07 µM	12.3 µM	2.24 µM	15.9 µM	0.466 µM	2.02 µM	1.9 µM	0.296 µM	0.674 µM	0.486 µM	14.9 µM	3.84 µM	38.2 µM	4.57 µM	0.885 µM	> 100 µM	0.776 µM	18.9 µM
COc1cc(CCc2ccc(OCCN(C)C)cc2)cc(OC)c1OC	–	–	–	> 100 µM	–	–	–	> 100 µM	–	–	–	–	> 100 µM	–	> 100 µM	88.4 µM	> 100 µM	> 100 µM	–	> 100 µM
O=[N+]([O-])c1ccc(C(c2c[nH]c3ccccc23)c2c[nH]c3ccccc23)cc1	–	39.3 µM	–	12.6 µM	–	21.4 µM	–	8.31 µM	–	–	–	–	40.9 µM	–	32.1 µM	54.4 µM	–	1.17 µM	–	35.8 µM
